One data set addresses T1, ASIC1a (Homo sapiens, UniProt P78348).
T1 sequence (P78348 1-528): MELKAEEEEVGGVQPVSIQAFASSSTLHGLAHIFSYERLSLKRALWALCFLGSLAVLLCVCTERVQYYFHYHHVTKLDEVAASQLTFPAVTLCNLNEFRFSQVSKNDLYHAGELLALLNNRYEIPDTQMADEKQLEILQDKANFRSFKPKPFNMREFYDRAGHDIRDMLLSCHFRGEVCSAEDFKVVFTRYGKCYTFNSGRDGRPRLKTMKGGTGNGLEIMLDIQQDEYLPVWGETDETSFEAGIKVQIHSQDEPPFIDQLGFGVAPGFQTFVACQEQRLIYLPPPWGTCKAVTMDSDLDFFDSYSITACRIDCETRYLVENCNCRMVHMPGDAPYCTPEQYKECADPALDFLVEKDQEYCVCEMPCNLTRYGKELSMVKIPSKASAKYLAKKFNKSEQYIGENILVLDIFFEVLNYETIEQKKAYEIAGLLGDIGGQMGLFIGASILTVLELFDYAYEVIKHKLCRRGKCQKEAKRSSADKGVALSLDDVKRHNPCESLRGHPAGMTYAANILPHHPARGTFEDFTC
In words: Calcium-imaging (calcium mobilization, FLIPR) assay in ASIC1a expressing HEK293 cells. Conditions: n=3-7, compounds not radiolabelled. Further details: host or cells: HEK293. The format is cell-based. The method, then:
ASIC1a expressing HEK293 cells are grown in culture medium (DMEM with 10% FBS), in polystyrene culture flasks ([…]) at 37° C. in a humidified atmosphere of 5% CO2. Confluency of cells should be 80-90% on day of plating. Cells are rinsed with 10 ml of PBS and re-suspended by addition of culture medium and trituration with a 25 ml pipette.
The cells are seeded at a density of approximately 1×10^6 cells/ml (100 μl/well) in black-walled, clear bottom, 96-well plates pre-treated with 10 mg/l poly-D-lysin (75 μl/well for ≧30 min). Plated cells were allowed to proliferate for 24 h before loading with dye.
Fluo-4/AM (1 mg, Molecular Probes) is dissolved in 912 μl DMSO. The Fluo-4/AM stock solution (1 mM) is diluted with culture medium to a final concentration of 2 μM (loading solution).
The culture medium is aspirated from the wells, and 50 μl of the Fluo-4/AM loading solution is added to each well. The cells are incubated at 37° C. for 30 min.
After the loading period, the loading solution is aspirated and the cells are washed twice with 100 μl modified Assay Buffer (145 mM NaCl, 5 mM KCl, 5 mM CaCl2, 1 mM MgCl2, 10 mM HEPES, pH 7.4) to remove extracellular dye. Following the second wash, 100 μl modified Assay Buffer is added to each well and the fluorescence is measured in FLIPR™ or FlexStation™ (Molecular Devices, USA), or any other suitable equipment known to the skilled in the art.
Temperature: Room temperature (20-22° C.)
First addition: 50 μl test solution at a rate of 30 μl/sec and a starting height of […]
Second addition: 50 μl MES solution (20 mM, 5 mM final concentration) at a rate of 35 μl/sec and a starting height of 150 μl.
Reading intervals: pre-incubation—10 sec×7 and 3 sec×3 antagonist phase—3 sec×17 and 10 sec×12
Addition plates (compound test plate and MES plate) are placed on the right and left positions in the FLIPR tray, respectively. Cell plates are placed in the middle position and the ASIC1a program is effectuated. FLIPR will then take the appropriate measurements in accordance with the interval settings above. Fluorescence obtained after stimulation is corrected for the mean basal fluorescence (in modified Assay Buffer).
The MES-induced peak calcium response, in the presence of test substance, is expressed relatively to the MES response alone. Test substances that block the MES-induced calcium response are re-tested in triplicates. Confirmed hits are picked for further characterization by performing full dose-response curves to determine potency of each hit compound as represented by the IC50 values (i.e., the concentration of the test substance which inhibits 50% of the MES-induced calcium response).
It is noted that the compounds below are not radiolabelled.

Data set [1] in a line: Liver microsomes stability and metabolite identification (LC-MS), dog. The format is in vitro ADME. Background: Liver microsomes are vesicles of endoplasmic reticulum, rich in cytochrome P450 enzymes.
In data set [2] the test system is formalin-induced pain in Sprague-Dawley rats. In words: Formalin model of acute tonic pain. The format is in vivo, rat. To be noted: rat, in vivo. The method, then: Male Sprague-Dawley rats are housed together in groups of three animals under standard conditions with unrestricted access to food and water. All experiments are conducted according to the ethical guidelines for investigations of experimental pain in conscious animals (Zimmerman, 1983)
Assessment of formalin-induced flinching behavior in normal, uninjured rats (body weight 150-180 g) was made with the use of an Automated Nociception Analyser (University of California, San Diego, USA). Briefly, this involved placing a small C-shaped metal band (10 mm wide×27 mm long) on the hindpaw of the rat to be tested. The rats (four rats were included in each testing session) were then placed in a cylindrical plexiglass observation chamber (diameter 30.5 cm and height 15 cm) for 20 min for adaptation purposes prior to being administered drug or vehicle according to the experimental paradigm being followed. After adaptation, individual rats were then gently restrained and formalin (5% in saline, 50 μl, s.c.) was injected into the plantar surface of the hindpaw using a 27 G needle. Rats were then returned to their separate observation chambers, each of which were in turn situated upon an enclosed detection device consisting of two electromagnetic coils designed to produce an electromagnetic field in which movement of the metal band could be detected. The analogue signal was then digitised and a software algorithm (LabView) applied to enable discrimination of flinching behaviour from other paw movements. A sampling interval of 1 min was used and on the basis of the resulting response patterns 5 phases of nociceptive behaviour were identified and scored: first phase (P1; 0-5 min), interphase (Int; 6-15 min), second phase (P2; […]), phase 2A (P2A; 16-40 min) and phase 2B (P2B; 41-60 min).
Nociceptive behavior was also determined manually every 5 min by measuring the amount of time spent in each of four behavioral categories: 0, treatment of the injected hindpaw is indistinguishable from that of the contralateral paw; 1, the injected paw has little or no weight placed on it; 2, the injected paw is elevated and is not in contact with any surface; 3, the injected paw is licked, bitten, or shaken. A weighted nociceptive score, ranging from 0 to 3 was calculated by multiplying the time spent in each category by the category weight, summing these products, and dividing by the total time for each 5 min block of time. (Coderre et al., Pain 1993; 54: 43). On the basis of the resulting response patterns, 2 phases of nociceptive behavior were identified and scored: first phase (P1; 0-5 min), interphase (Int; 6-15 min), second phase (P2; […]), phase 2A (P2A; 16-40 min) and phase 2B (P2B; 41-60 min).
Statistical analysis was performed using Prism™ 4.01 software package (GraphPad, San Diego, Calif., USA). The difference in response levels between treatment groups and control vehicle group was analyzed using an ANOVA followed by Bonferroni's method for post-hoc pair-wise comparisons. A p value<0.05 was considered to be significant
The effect of Compound A on pain induced by intraplantar formalin injection was investigated. Compound A was administered i.p. 30 min. before the formalin. Compound A was able to reduce the total pain score behavior (flinching, licking, biting) in phase 1 and 2 of the formalin test.

The nature of data set [3]: Liver microsomes stability and metabolite identification (LC-MS), rat. It counts as in vitro ADME. An excerpt:
(§1) The objective of this study is to analyze in vitro samples of Compound A and Compound B from rat and human microsomes using liquid chromatography quadrupole ion trap mass spectrometry and identify the nature of the metabolite(s) for each species.
(§2) The HPLC system consisted of a Thermo Surveror autosampler and a Thermo Surveyor MS pump (San Jose, Calif., USA). The LC-MS/MS system used was a Thermo LCQ Advantage (San Jose, Calif., USA). Data was acquired on a Dell Optiplex desktop computer (Round Rock, Tex., USA) equipped with operation system Windows XP professional. Data acquisition and analysis were performed using XCalibur 1.4 (San Jose, Calif., USA).
(§3) After the incubation period of the liver microsomes, the reaction was stopped with the addition of acetonitrile and frozen for transport. Before analysis, the samples were thawed at room temperature. They were vortexed vigorously and centrifuged at approximately 12000 g for 10 minutes. The supernatant was transferred into an injection vial for analysis.
(§4) A gradient mobile phase was used with a Thermo Phenyl 100×2 mm column with particle size of 5 μm. The initial mobile phase condition consisted of methanol and 0.1% formic acid solution at a ratio of 20:80, respectively. From 0 to 2 minutes, the ratio was maintained at 20:80. From 2 to 10 minutes, a linear gradient was applied and a ratio of 90:10 was maintained from 10 to 12 minutes. […] The flow rate was fixed at 0.25 mL/min.
(§5) The mass spectrometer was interfaced with the HPLC system using a pneumatic assisted electrospray ion source. The sheath gas was set to 15 units and the ESI electrode was set to 4000 V (positive mode). The capillary temperature was set at 300° C., and the capillary voltage was set to 13 V. The mass spectrometer was operating in full scan MS mode using one segment analysis (200-800).

A short description of data set [4]: Plasma composition analysis, parent compound and metabolites by MS. The format is in vivo. To be noted: rat plasma. As to the method: Rats receive compounds (5 mg/kg) dissolved in HPβCD 15%, dextrose 2.5%, pH 5 by intravenous (i.v). route or (25-30 mg/kg) dissolved in HPβCD 15%, dextrose 2.5%, […] (s.c.) route or (50-150 mg/kg) dissolved in HPβCD 15%, dextrose 2.5%, pH 5 by oral (p.o.) route. After the treatment, approximately 100 μl of blood sample is collected and the accurate bleeding time is recorded for each sample. Each blood sample is collected into Microvette blood collection tube containing anticoagulant lithium heparin. Following collection, the samples are centrifuged at […] for 15 minutes (to avoid haemolysis) and the plasma obtained from each is recovered and stored frozen (at −80° C.) pending analysis. Frozen samples are shipped on dry ice to quantify drug concentration within plasma after extraction procedure as previously described in Example 13.

Data set [5] can be described thus: Liver microsomes stability and metabolite identification (LC-MS), human. The format is in vitro ADME.
Description: as §1, §2, §3, §4, §5

[6] abbreviates: dog microsomes 60 min (samples 26-28).
The mark [7] stands for this setting: rat microsomes 60 min (samples 8-10).
Setting [8] is: human microsomes 60 min (samples 17-19).

“And” between values parts separate entries of the source, which are not always exact repeats. Equal values may be shown once.

The term IC50 denotes the midpoint of a concentration-inhibition curve.

`CN1CCc2c(-c3cc(F)ccc3O)cc3c(c2C1)NC(=O)C3=NO` [Compound L, 5-(5-Fluoro-2-hydroxyphenyl)-3-(hydroxyimino)-8-methyl-6,7,8,9-tetrahydro-1H-pyrrolo[3,2-h]isoquinolin-2(3H)-one]: the IC50 at ASIC1a was determined as 800 nM.

For `COc1ccc(F)cc1-c1cc2c(c3c1CCN(C)C3)NC(=O)/C2=N/O` [Compound A (minor Z isomer isolated), 5-(5-fluoro-2-methoxyphenyl)-6,7,8,9-tetrahydro-3-(hydroxyimino)-8-methyl-1H-pyrrolo[3,2-h]isoquinoline-2(3H)-one], the IC50 on ASIC1a is 1000 nM.

In the case of `CCN1CCc2c(-c3cc(F)ccc3OC)cc3c(c2C1)NC(=O)/C3=N/O` [Compound B, 5-(5-fluoro-2-methoxyphenyl)-6,7,8,9-tetrahydro-3-(hydroxyimino)-8-ethyl-1H-pyrrolo[3,2-h]isoquinoline-2(3H)-one], the Total % metabolites in data set [1] (% peak area relative to parent at T0, 60 min incubation, dog microsomes) was determined as 4.93%; in data set [3] (% peak area relative to parent at T0, 60 min incubation, rat microsomes), 12.8%; in data set [5] (% peak area relative to parent at T0, 60 min incubation, human microsomes), 9.4%. The entries for the “Compound B metabolite identification: m/z 342” value in data set [1] (setting [6]), in data set [3] (setting [7]) and in data set [5] (setting [8]) were “very weak”, “Yes” and “Yes”, respectively. For the same compound, the “Compound B metabolite identification: m/z 356” value in data set [1] (setting [6]) is reported as “very weak”; in data set [3] (setting [7]), “Yes”; in data set [5] (setting [8]), “low”. Further, the “Compound B metabolite identification: m/z 370 (parent)” value in data set [1] (setting [6]), in data set [3] (setting [7]) and in data set [5] (setting [8]) was “Yes” each time. The “Compound B metabolite identification: m/z 386” value is listed as “low” in data set [1] (setting [6]), “Yes” in data set [3] (setting [7]) and “Yes” in data set [5] (setting [8]). The “Calc. Conc.” value is 4.44 µM and 4.56 µM in data set [1] (dog microsomes, time 0 min); 4.33 µM and 4.38 µM and 4.17 µM in data set [1] (dog microsomes, time 60 min); 4.95 µM in data set [3] (rat microsomes, time 0 min); 0.90 µM and 0.92 µM and 0.97 µM in data set [3] (rat microsomes, time 60 min); 4.39 µM and 5.04 µM in data set [5] (human microsomes, time 0 min); 4.34 µM and 4.59 µM and 5.03 µM in data set [5] (human microsomes, time 60 min). Besides, in data set [2], the “acute tonic pain induced by formalin injection in the paw” value is “block”. The “Plasma Component: N-desMe or desEt” value in data set [4] (IV 5 mg/kg), in data set [4] (PO 50 mg/kg) and in data set [4] (SC 25 mg/kg) was “Trace” each time. Further, the “Plasma Component: O-desMe” value in data set [4] (IV 5 mg/kg), in data set [4] (PO 50 mg/kg) and in data set [4] (SC 25 mg/kg) was “Trace” in each case. Moreover, the “Plasma Component: P—OH” value in data set [4] (IV 5 mg/kg), in data set [4] (PO 50 mg/kg) and in data set [4] (SC 25 mg/kg) was “Trace” throughout.

The values above are taken from patent US20090246134A1, “COMPOSITIONS AND METHODS FOR MODULATING GATED ION CHANNELS” (PainCeptor Pharma Corporation, priority 2007, published 2009).
